# Experimental data: ChEMBL document CHEMBL3862012, “Methylene versus carbonyl bridge in the structure of new tubulin polymerization inhibitors with tricyclic A-rings” (Bioorg Med Chem, 2016)
# Assay: Cytotoxicity against human Caki1 cells assessed as growth inhibition after 48 hrs by SRB assay
# Format: functional
# Conditions: CAKI-1, 48 h
row,SMILES,GI50 [nM]
1,COc1ccc(CN2c3ccccc3Sc3ccccc32)cc1O,472

# Assay: Cytotoxicity against human OVCAR5 cells assessed as growth inhibition after 48 hrs by SRB assay
# Format: functional
# Conditions: OVCAR-5, 48 h
row,SMILES,GI50 [nM]
1,COc1ccc(CN2c3ccccc3Sc3ccccc32)cc1O,12700

# Assay: Cytotoxicity against human SF268 cells assessed as growth inhibition after 48 hrs by SRB assay
# Format: functional
# Conditions: SF-268, 48 h
row,SMILES,GI50 [nM]
1,COc1ccc(CN2c3ccccc3Sc3ccccc32)cc1O,966

# Assay: Cytotoxicity against human LOXIMVI cells assessed as growth inhibition at 10 uM after 48 hrs by SRB assay relative to control
# Format: functional
# Conditions: LOX IMVI, read-out: GI
row,SMILES,inhibition of growth at 10 µM [%]
1,COc1ccc(CN2c3ccccc3Sc3ccccc32)cc1O,57

# Assay: Cytotoxicity against human HCT116 cells assessed as growth inhibition after 48 hrs by SRB assay
# Format: functional
# Conditions: HCT-116, 48 h
row,SMILES,GI50 [nM]
1,COc1ccc(CN2c3ccccc3Sc3ccccc32)cc1O,386

# Assay: Cytotoxicity against human RPMI8226 cells assessed as growth inhibition at 10 uM after 48 hrs by SRB assay relative to control
# Format: functional
# Conditions: RPMI-8226, 48 h, read-out: GI
row,SMILES,inhibition of growth at 10 µM [%]
1,COc1ccc(CN2c3ccccc3Sc3ccccc32)cc1O,76

# Assay: Cytotoxicity against human OVCAR4 cells assessed as growth inhibition at 10 uM after 48 hrs by SRB assay relative to control
# Format: functional
# Conditions: OVCAR-4, 48 h, read-out: GI
row,SMILES,inhibition of growth at 10 µM [%]
1,COc1ccc(CN2c3ccccc3Sc3ccccc32)cc1O,54

# Assay: Cytotoxicity against human RXF393 cells assessed as growth inhibition after 48 hrs by SRB assay
# Format: functional
# Conditions: RXF 393, 48 h
row,SMILES,GI50 [nM]
1,COc1ccc(CN2c3ccccc3Sc3ccccc32)cc1O,338

# Assay: Cytotoxicity against human SF268 cells assessed as growth inhibition at 10 uM after 48 hrs by SRB assay relative to control
# Format: functional
# Conditions: SF-268, 48 h, read-out: GI
row,SMILES,inhibition of growth at 10 µM [%]
1,COc1ccc(CN2c3ccccc3Sc3ccccc32)cc1O,54

# Assay: Cytotoxicity against human SF539 cells assessed as growth inhibition after 48 hrs by SRB assay
# Format: functional
# Conditions: SF-539, 48 h
row,SMILES,GI50 [nM]
1,COc1ccc(CN2c3ccccc3Sc3ccccc32)cc1O,270

# Assay: Cytotoxicity against human MCF7 cells assessed as growth inhibition after 48 hrs by SRB assay
# Format: functional
# Conditions: MCF7, 48 h
row,SMILES,GI50 [nM]
1,COc1ccc(CN2c3ccccc3Sc3ccccc32)cc1O,355

# Assay: Cytotoxicity against human Hs 578T cells assessed as growth inhibition at 10 uM after 48 hrs by SRB assay relative to control
# Format: functional
# Conditions: read-out: GI
row,SMILES,inhibition of growth at 10 µM [%]
1,COc1ccc(CN2c3ccccc3Sc3ccccc32)cc1O,67

# Assay: Cytotoxicity against human ACHN cells assessed as growth inhibition at 10 uM after 48 hrs by SRB assay relative to control
# Format: functional
# Conditions: read-out: GI
row,SMILES,inhibition of growth at 10 µM [%]
1,COc1ccc(CN2c3ccccc3Sc3ccccc32)cc1O,58

# Assay: Cytotoxicity against human HCT15 cells assessed as growth inhibition after 48 hrs by SRB assay
# Format: functional
# Conditions: HCT-15, 48 h
row,SMILES,GI50 [nM]
1,COc1ccc(CN2c3ccccc3Sc3ccccc32)cc1O,369

# Assay: Cytotoxicity against human COLO205 cells assessed as growth inhibition at 10 uM after 48 hrs by SRB assay relative to control
# Format: functional
# Conditions: COLO 205, 48 h, read-out: GI
row,SMILES,inhibition of growth at 10 µM [%]
1,COc1ccc(CN2c3ccccc3Sc3ccccc32)cc1O,100

# Assay: Cytotoxicity against human MDA-MB-435 cells assessed as growth inhibition after 48 hrs by SRB assay
# Format: functional
# Conditions: MDA-MB-435, 48 h
row,SMILES,GI50 [nM]
1,COc1ccc(CN2c3ccccc3Sc3ccccc32)cc1O,234

# Assay: Cytotoxicity against human OVCAR8 cells assessed as growth inhibition at 10 uM after 48 hrs by SRB assay relative to control
# Format: functional
# Conditions: OVCAR-8, 48 h, read-out: GI
row,SMILES,inhibition of growth at 10 µM [%]
1,COc1ccc(CN2c3ccccc3Sc3ccccc32)cc1O,78

# Assay: Cytotoxicity against human SNB19 cells assessed as growth inhibition at 10 uM after 48 hrs by SRB assay relative to control
# Format: functional
# Conditions: SNB-19, 48 h, read-out: GI
row,SMILES,inhibition of growth at 10 µM [%]
1,COc1ccc(CN2c3ccccc3Sc3ccccc32)cc1O,67

# Assay: Cytotoxicity against human SK-MEL-2 cells assessed as growth inhibition after 48 hrs by SRB assay
# Format: functional
# Conditions: SK-MEL-2, 48 h
row,SMILES,GI50 [nM]
1,COc1ccc(CN2c3ccccc3Sc3ccccc32)cc1O,333

# Assay: Cytotoxicity against human UACC257 cells assessed as growth inhibition at 10 uM after 48 hrs by SRB assay relative to control
# Format: functional
# Conditions: UACC-257, 48 h, read-out: GI
row,SMILES,inhibition of growth at 10 µM [%]
1,COc1ccc(CN2c3ccccc3Sc3ccccc32)cc1O,48

# Assay: Cytotoxicity against human M14 cells assessed as growth inhibition after 48 hrs by SRB assay
# Format: functional
# Conditions: M14, 48 h
row,SMILES,GI50 [nM]
1,COc1ccc(CN2c3ccccc3Sc3ccccc32)cc1O,383

# Assay: Cytotoxicity against human IGROV1 cells assessed as growth inhibition after 48 hrs by SRB assay
# Format: functional
# Conditions: IGROV-1, 48 h
row,SMILES,GI50 [nM]
1,COc1ccc(CN2c3ccccc3Sc3ccccc32)cc1O,1930

# Assay: Cytotoxicity against human HOP92 cells assessed as growth inhibition after 48 hrs by SRB assay
# Format: functional
# Conditions: HOP-92, 48 h
row,SMILES,GI50 [nM]
1,COc1ccc(CN2c3ccccc3Sc3ccccc32)cc1O,502

# Assay: Cytotoxicity against human SK-MEL-2 cells assessed as growth inhibition at 10 uM after 48 hrs by SRB assay relative to control
# Format: functional
# Conditions: SK-MEL-2, 48 h, read-out: GI
row,SMILES,inhibition of growth at 10 µM [%]
1,COc1ccc(CN2c3ccccc3Sc3ccccc32)cc1O,91

# Assay: Cytotoxicity against human SK-MEL-5 cells assessed as growth inhibition after 48 hrs by SRB assay
# Format: functional
# Conditions: SK-MEL-5, 48 h
row,SMILES,GI50 [nM]
1,COc1ccc(CN2c3ccccc3Sc3ccccc32)cc1O,438

# Assay: Cytotoxicity against human DU145 cells assessed as growth inhibition after 48 hrs by SRB assay
# Format: functional
# Conditions: DU-145, 48 h
row,SMILES,GI50 [nM]
1,COc1ccc(CN2c3ccccc3Sc3ccccc32)cc1O,374

# Assay: Cytotoxicity against human HCT15 cells assessed as growth inhibition at 10 uM after 48 hrs by SRB assay relative to control
# Format: functional
# Conditions: HCT-15, 48 h, read-out: GI
row,SMILES,inhibition of growth at 10 µM [%]
1,COc1ccc(CN2c3ccccc3Sc3ccccc32)cc1O,67

# Assay: Cytotoxicity against human COLO205 cells assessed as growth inhibition after 48 hrs by SRB assay
# Format: functional
# Conditions: COLO 205, 48 h
row,SMILES,GI50 [nM]
1,COc1ccc(CN2c3ccccc3Sc3ccccc32)cc1O,789

# Assay: Cytotoxicity against human SNB75 cells assessed as growth inhibition after 48 hrs by SRB assay
# Format: functional
# Conditions: SNB-75, 48 h
row,SMILES,GI50 [nM]
1,COc1ccc(CN2c3ccccc3Sc3ccccc32)cc1O,180

# Assay: Cytotoxicity against human OVCAR3 cells assessed as growth inhibition after 48 hrs by SRB assay
# Format: functional
# Conditions: OVCAR-3, 48 h
row,SMILES,GI50 [nM]
1,COc1ccc(CN2c3ccccc3Sc3ccccc32)cc1O,304

# Assay: Cytotoxicity against human SW620 cells assessed as growth inhibition at 10 uM after 48 hrs by SRB assay relative to control
# Format: functional
# Conditions: SW-620, 48 h, read-out: GI
row,SMILES,inhibition of growth at 10 µM [%]
1,COc1ccc(CN2c3ccccc3Sc3ccccc32)cc1O,69

# Assay: Cytotoxicity against human IGROV1 cells assessed as growth inhibition at 10 uM after 48 hrs by SRB assay relative to control
# Format: functional
# Conditions: IGROV-1, 48 h, read-out: GI
row,SMILES,inhibition of growth at 10 µM [%]
1,COc1ccc(CN2c3ccccc3Sc3ccccc32)cc1O,70

# Assay: Cytotoxicity against human OVCAR5 cells assessed as growth inhibition at 10 uM after 48 hrs by SRB assay relative to control
# Format: functional
# Conditions: OVCAR-5, 48 h, read-out: GI
row,SMILES,inhibition of growth at 10 µM [%]
1,COc1ccc(CN2c3ccccc3Sc3ccccc32)cc1O,14

# Assay: Cytotoxicity against human SK-MEL-28 cells assessed as growth inhibition after 48 hrs by SRB assay
# Format: functional
# Conditions: SK-MEL-28, 48 h
row,SMILES,GI50 [nM]
1,COc1ccc(CN2c3ccccc3Sc3ccccc32)cc1O,14400

# Assay: Cytotoxicity against human SW620 cells assessed as growth inhibition after 48 hrs by SRB assay
# Format: functional
# Conditions: SW-620, 48 h
row,SMILES,GI50 [nM]
1,COc1ccc(CN2c3ccccc3Sc3ccccc32)cc1O,504

# Assay: Cytotoxicity against human NCI-H460 cells assessed as growth inhibition after 48 hrs by SRB assay
# Format: functional
# Conditions: NCI-H460, 48 h
row,SMILES,GI50 [nM]
1,COc1ccc(CN2c3ccccc3Sc3ccccc32)cc1O,444

# Assay: Cytotoxicity against human SKOV3 cells assessed as growth inhibition after 48 hrs by SRB assay
# Format: functional
# Conditions: SK-OV-3, 48 h
row,SMILES,GI50 [nM]
1,COc1ccc(CN2c3ccccc3Sc3ccccc32)cc1O,521

# Assay: Cytotoxicity against human HT-29 cells assessed as growth inhibition at 10 uM after 48 hrs by SRB assay relative to control
# Format: functional
# Conditions: HT-29, 48 h, read-out: GI
row,SMILES,inhibition of growth at 10 µM [%]
1,COc1ccc(CN2c3ccccc3Sc3ccccc32)cc1O,91

# Assay: Cytotoxicity against human NCI-H522 cells assessed as growth inhibition at 10 uM after 48 hrs by SRB assay relative to control
# Format: functional
# Conditions: NCI-H522, 48 h, read-out: GI
row,SMILES,inhibition of growth at 10 µM [%]
1,COc1ccc(CN2c3ccccc3Sc3ccccc32)cc1O,100

# Assay: Cytotoxicity against human 786-0 cells assessed as growth inhibition after 48 hrs by SRB assay
# Format: functional
# Conditions: 786-0, 48 h
row,SMILES,GI50 [nM]
1,COc1ccc(CN2c3ccccc3Sc3ccccc32)cc1O,838
